Values quoted from earlier work in patent US20140227371A1, “EDIBLE COMPOSITION” (priority 2011, published 2014).

Legend:
rat liver = settings: through activation of the β-oxidation system, Tsuduki et al. 2009
[1] = alcohol-induced steatosis and steatohepatitis models; Kang et al. 2005

Question: With `OC[C@H]1NC[C@H](O)[C@@H](O)[C@@H]1O` [1-Deoxynojirimycin] as the compound, how does the Lipid accumulation (rat liver) read?
Answer: suppress lipid accumulation

Question: For `[Zn]` [Zinc], which Hepatoprotective effects [1] is on record?
Answer: hepatoprotective effects
